Source: paper PMC7010297, “How the initiating ribosome copes with ppGpp to translate mRNAs” (PLoS Biology, 2020)
Values joined by “and” are separate entries in the source; they are usually repeats but may differ in a detail not shown here. Equal entries are not always repeated. Where two headings read alike, the source gives them in different places.

B1: mTufA: TufA mRNA with full-length 5′ UTR, in vitro transcribed, codes for EF-Tu (nucleic acid)
chain: GGUUCUAUCGCCUUUAAAGAAGGCUUUAAGAAAGCGAAACCAGUUCUGCUUGAGCCGAUCAUGAAGGUUGAAGUAGAAACUCCGGAAGAGAACACCGGUGACGUUAUCGGUGACUUGAGCCGUCGUCGUGGUAUGCUCAAAGGUCAGGAAUCUGAAGUUACUGGCGUUAAGAUCCACGCUGAAGUACCGCUGUCUGAAAUGUUCGGAUACGCAACUCAGCUGCGUUCUCUGACCAAAGGUCGUGCAUCAUACACUAUGGAAUUCCUGAAGUAUGAUGAAGCGCCGAGUAACGUUGCUCAGGCCGUAAUUGAAGCCCGUGGUAAAUAAGCCUAAGGGUUAAUACCAAAGUCCCGUGCUCUCUCCUGAAGGGGAGAGCACUAUAGUAAGGAAUAUAGCCGUGUCUAAAGAAAAAUUUGAACG

How the values were obtained:
[1] = target: T1, 30S IC (30S-bound IF2, Bpy-tRNAi) (Escherichia coli, UniProt P0A705); experiment: 30S IC formation measured by MST at increasing concentrations of IF2 with guanosine nucleotides; type: binding; details: Fig 2A
T1 construct: 6xHis (N); made in house
Description: To monitor the interaction of initiator tRNA and 30S ribosomal subunits, we used Microscale Thermophoresis (MST) with a fluorescently labelled initiator tRNA (Bpy-tRNAi) (Fig 1B). MST allows to measure fluorescence in a constrained space. Changes on the readout derive from molecular drifts resulting from small thermal equilibrium perturbations. Upon equilibrium perturbations, the patterns of Bpy-tRNAi migration away from the observation space are related to bound and unbound states (Fig 1B). […] On the contrary, a decrease in thermophoresis indicated the dissociation of Bpy-tRNAi. The relation between fluorescence measured at both equilibriums (Ff to Fi, after and prior to the perturbation, respectively) as a function of ligand concentration allowed to determine dissociation constants of the interaction (Fig 1C).
(§1) Continuous lines indicate nonlinear regression fittings with a quadratic equation. Three measurements were performed; mean and standard deviation are plotted (S1 Data). (B) as (A) to measure the concentration dependence for each tested guanosine nucleotide at constant IF2 (1 μM). […] Continuous lines show best fits using exponential functions. (D) Formation of 70S IC as measured by Bpy-tRNAi accommodation in the P site of the ribosome; 0.1 μM 30S ICs were formed with Bpy-tRNAi and rapidly mixed with 0.3 μM 50S subunits on a stopped-flow apparatus as described in [14]. Colors are as in (C). Continuous lines show best fits using an exponential function for a single reaction step. Each stopped-flow trace results from the mean of 5 to 7 replicates.

30S-bound IF2 (30S IC) = target: T2, 30S-bound IF2 (30S IC) (Escherichia coli, UniProt P0A705); experiment: ppGpp (or GDP) to GTP competitive assay for 30S IC formation by MST; type: binding; details: for MST Avg / MST Replicates: S4G Fig
T2 construct: 6xHis (N); made in house
Experimental: MST was calculated from the respective fluorescence time dependencies (S3 Fig). […] Symbols as in (B). […] Continuous lines indicate nonlinear regression fittings with quadratic (B and E) or same-site competition (G) functions. Three measurements were performed; mean and standard deviations are plotted (S1 Data).
[…] Symbols are as indicated, 3 measurements were performed, and mean and standard deviation are plotted (S1 Data). Continuous lines show nonlinear regression fittings with a same-site inhibition model. […] (PDF) Click here for additional data file.

[2] = target: T3, 70S pre-IC (50S joining to 30S IC) (Escherichia coli, UniProt P0A705); experiment: 70S pre-IC formation by light scattering, stopped-flow; type: biochemical; parameters: K1, best-fit value / k2, best-fit value: unit not given here; details: for kfast (s-1) Avg: light scattering
T3 construct: 6xHis (N); made in house
Experimental: as §1
(A) Scheme of 70S IC formation. […] Time traces were analyzed by nonlinear regression with exponential terms. […] Formation of 70S IC, as measured by Bpy-tRNAi accommodation in the absence (F) or presence of 200 μM ppGpp (G). Time traces were analyzed by nonlinear regression with one exponential term. […] Continuous lines show best fits using an exponential function for a single reaction step. All time traces are mean values of 5 to 10 replicates. Bar graphs show mean and standard errors (error bars) derived from the nonlinear regression fitting (D,E,H,I) (S1 Data).
To measure 70S pre-IC formation, a SX-20 stopped-flow instrument (Applied Photophysics, Leatherhead, UK) was set up for LS recording with an excitation wavelength of 430 nm. Scattered light was measured at an angle of 90° without a filter. Pseudo first-order conditions were approximated by using ≥3-fold excess of 50S subunits over 30S ICs; 0.2 μM 30S ICs were rapidly mixed in the instrument with 0.6 μM 50S at 25 °C. Bpy-tRNAi accommodation was measured essentially as described elsewhere. Briefly, 0.2 μM 30S ICs were formed using Bpy-tRNAi and rapidly mixed with 0.6 μM 50S at 25 °C. Fluorescence was excited at 470 nm and measured after a 495-nm longpass filter. Individual traces (6–11 traces) were averaged, and the resulting kinetic curve was approximated by single (F = A0 + A1*exp (-kapp1*t)) or double (F = A0 + A1*exp (-kapp1*t) + A2*exp (-kapp2*t)) exponential fit using Graphpad Prism 6.0 software (GraphPad, San Diego, California).

[3] = mInfA, fit Y=A0+A1*exp(-K1*x)+k2*x
[4] = mMF1, fit Y=A0+A1*exp(-K1*x)+k2*x
[5] = mTufA, fit Y=A0+A1*exp(-K1*x)+k2*x

T1 sequence (P0A705 whole entry, looked up): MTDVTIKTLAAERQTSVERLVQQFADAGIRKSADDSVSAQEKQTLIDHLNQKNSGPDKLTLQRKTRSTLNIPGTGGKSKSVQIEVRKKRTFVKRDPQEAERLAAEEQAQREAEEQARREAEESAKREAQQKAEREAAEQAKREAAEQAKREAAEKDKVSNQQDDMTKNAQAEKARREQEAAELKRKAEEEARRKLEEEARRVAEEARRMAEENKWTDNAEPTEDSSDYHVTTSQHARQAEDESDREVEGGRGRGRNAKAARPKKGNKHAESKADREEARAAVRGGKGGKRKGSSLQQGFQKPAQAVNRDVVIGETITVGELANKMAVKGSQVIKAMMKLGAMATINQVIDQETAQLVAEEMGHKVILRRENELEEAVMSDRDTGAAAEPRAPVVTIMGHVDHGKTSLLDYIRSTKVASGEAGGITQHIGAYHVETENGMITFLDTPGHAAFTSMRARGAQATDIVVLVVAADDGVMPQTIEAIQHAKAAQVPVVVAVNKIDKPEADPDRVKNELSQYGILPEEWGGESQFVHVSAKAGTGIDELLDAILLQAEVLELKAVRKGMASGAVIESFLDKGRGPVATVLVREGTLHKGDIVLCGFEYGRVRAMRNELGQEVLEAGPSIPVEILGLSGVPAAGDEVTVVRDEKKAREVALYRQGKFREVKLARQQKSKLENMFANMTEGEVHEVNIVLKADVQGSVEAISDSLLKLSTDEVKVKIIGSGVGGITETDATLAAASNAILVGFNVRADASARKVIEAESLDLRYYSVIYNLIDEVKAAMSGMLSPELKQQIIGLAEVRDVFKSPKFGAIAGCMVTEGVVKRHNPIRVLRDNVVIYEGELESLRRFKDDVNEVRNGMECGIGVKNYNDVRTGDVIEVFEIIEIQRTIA
T2 sequence (P0A705 whole entry, looked up): as above
T3 sequence (P0A705 whole entry, looked up): as above

| Molecule | MST Average ([1]; IF2 0.16 µM) [a.u.] | MST Average ([1]; IF2 0.31 µM) [a.u.] | MST Average ([1]; IF2 0.63 µM) [a.u.] | MST Average ([1]; IF2 1.25 µM) [a.u.] | MST Average ([1]; IF2 2.50 µM) [a.u.] | MST Average ([1]; IF2 5.00 µM) [a.u.] | A0, best-fit value [2, 3] | K1, best-fit value [2, 3] | k2, best-fit value [2, 3] | A0, best-fit value [2, 4] | K1, best-fit value [2, 4] | k2, best-fit value [2, 4] | LS amplitude (a.u.) Avg ([2]; mRNA mInfA) [a.u.] | LS amplitude (a.u.) Avg ([2]; mRNA mMF1) [a.u.] | kfast (s-1) Avg ([2]; mRNA mMF1) [s⁻¹] | LS amplitude (a.u.) Avg ([2]; mRNA mTufA) [a.u.] | kfast (s-1) Avg ([2]; mRNA mTufA) [s⁻¹] | A0, best-fit value [2, 5] | K1, best-fit value [2, 5] | k2, best-fit value [2, 5] | also measured |
| --- | --- | --- | --- | --- | --- | --- | --- | --- | --- | --- | --- | --- | --- | --- | --- | --- | --- | --- | --- | --- | --- |
| Nc1nc2c(ncn2[C@@H]2O[C@H](COP(=O)(O)OP(=O)(O)O)[C@@H](O)[C@H]2O)c(=O)[nH]1 [GDP, guanosine diphosphate] | 936.66 | 942.67 | 949.91 | 961.16 | 966.51 | 968.29 | 1.03 | 1.58 | 0.0017 and 0.00169 | 1.04 | 2.79 | 0.001 | 0.028 | 0.027 | 2.79 | 0.058 | 3.39 | 1.07 | 3.39 | 0.0016 and 0.00162 | MST Replicates (a.u.) ([1]; IF2 0.16 µM, in the presence of the nucleotide): 938.79 a.u. and 935.06 a.u. and 936.14 a.u.; MST Replicates (a.u.) ([1]; IF2 0.31 µM): 943.24 a.u. and 941.18 a.u. and 943.58 a.u.; MST Replicates (a.u.) ([1]; IF2 0.63 µM): 951.36 a.u. and 947.80 a.u. and 950.56 a.u.; MST Replicates (a.u.) ([1]; IF2 1.25 µM): 962.03 a.u. and 959.55 a.u. and 961.91 a.u.; MST Replicates (a.u.) ([1]; IF2 2.50 µM): 967.31 a.u. and 965.43 a.u. and 966.81 a.u.; MST Replicates (a.u.) ([1]; IF2 5.00 µM): 968.72 a.u. and 967.06 a.u. and 969.08 a.u.; IC50 (30S-bound IF2 (30S IC); mRNA mInfA, read-out: IC50 Average): 126 µM; IC50 (30S-bound IF2 (30S IC); mRNA mInfA, read-out: IC50 Replicates): 124 µM and 128 µM and 126 µM; IC50 (30S-bound IF2 (30S IC); mRNA mMF1, read-out: IC50 Average): 38.6 µM; IC50 (30S-bound IF2 (30S IC); mRNA mMF1, read-out: IC50 Replicates): 37.5 µM and 39.6 µM and 38.8 µM; IC50 (30S-bound IF2 (30S IC); mRNA mTufA, read-out: IC50 Average): 173 µM; IC50 (30S-bound IF2 (30S IC); mRNA mTufA, read-out: IC50 Replicates): 168 µM and 176 µM (2×); efficiency (amplitude) of 70S pre-IC formation ([2]; 0.2 mM nucleotide, no GTP): reduced efficiencies; rapid 70S pre-IC formation in the absence of GTP ([2]; 0.2 mM nucleotide, noncompetitive (S6 Fig)): some transitions; kfast (s-1) Avg ([2]; mRNA mInfA): 1.58 s⁻¹ |
| Nc1nc2c(ncn2[C@@H]2O[C@H](COP(=O)(O)OP(=O)(O)OP(=O)(O)O)[C@@H](O)[C@H]2O)c(=O)[nH]1 [GTP, guanosine triphosphate] | 1029.29 | 1076.43 | 1093.32 | 1094.97 | 1077.58 | 1077.76 | 1.08 | 1.97 | 0.0017 and 0.00173 | 1.05 | 1.98 | 0.000317 | 0.062 | 0.035 | 1.98 | 0.083 | 5.20 | 1.11 | 5.20 | 0.000653 | kapp of 70S pre-IC formation (LS) ([2]; 30S complexes formed with 0.2 mM nucleotide, mixed with 50S subunits): 2.9 ± 0.3 s^–1; A1, best-fit value [2, 4]: -0.035 |
| B1 |  |  |  |  |  |  |  |  |  |  |  |  |  |  |  |  |  |  |  |  | MST Avg (30S-bound IF2 (30S IC); Log [GDP] 0.29): 1108.89 a.u.; MST Replicates (30S-bound IF2 (30S IC); Log [GDP] 0.29): 1106.67 a.u. and 1109.49 a.u. and 1110.53 a.u.; MST Avg (30S-bound IF2 (30S IC); Log [GDP] 0.59): 1108.25 a.u.; MST Replicates (30S-bound IF2 (30S IC); Log [GDP] 0.59): 1104.73 a.u. and 1108.81 a.u. and 1111.20 a.u.; MST Avg (30S-bound IF2 (30S IC); Log [GDP] 0.89): 1106.94 a.u.; MST Replicates (30S-bound IF2 (30S IC); Log [GDP] 0.89): 1105.25 a.u. and 1107.28 a.u. and 1108.30 a.u.; MST Avg (30S-bound IF2 (30S IC); Log [GDP] 1.19): 1104.11 a.u.; MST Replicates (30S-bound IF2 (30S IC); Log [GDP] 1.19): 1101.85 a.u. and 1104.36 a.u. and 1106.13 a.u.; MST Avg (30S-bound IF2 (30S IC); Log [GDP] 1.49): 1094.23 a.u.; MST Replicates (30S-bound IF2 (30S IC); Log [GDP] 1.49): 1091.94 a.u. and 1094.86 a.u. and 1095.88 a.u.; MST Avg (30S-bound IF2 (30S IC); Log [GDP] 1.80): 1077.93 a.u.; MST Replicates (30S-bound IF2 (30S IC); Log [GDP] 1.80): 1075.66 a.u. and 1079.00 a.u. and 1079.14 a.u.; MST Avg (30S-bound IF2 (30S IC); Log [GDP] 2.10): 1056.10 a.u.; MST Replicates (30S-bound IF2 (30S IC); Log [GDP] 2.10): 1053.33 a.u. and 1057.00 a.u. and 1057.97 a.u.; MST Avg (30S-bound IF2 (30S IC); Log [GDP] 2.40): 1017.56 a.u.; MST Replicates (30S-bound IF2 (30S IC); Log [GDP] 2.40): 1014.74 a.u. and 1018.61 a.u. and 1019.33 a.u.; MST Avg (30S-bound IF2 (30S IC); Log [GDP] 2.70): 975.78 a.u.; MST Replicates (30S-bound IF2 (30S IC); Log [GDP] 2.70): 973.53 a.u. and 976.74 a.u. and 977.08 a.u. |
